Assay results from publication PMC4410475, “Discovery and anti-cancer evaluation of two novel non-ATP-competitive FGFR1 inhibitors in non-small-cell lung cancer” (BMC Cancer, 2015).

Assays:
Format in all cases: biochemical
FGFR1 [1] = target: T1, FGFR1 (Homo sapiens, UniProt P11362); experiment: Caliper mobility shift kinase assay with recombinant FGFR1, ATP at Km ([…])
FGFR3 = FGFR3 (Homo sapiens, UniProt P22607); experiment: cell-free kinase assay (authors' own, called previous); conditions: cited from earlier work
FGFR1 [2] = target: T1, FGFR1; experiment: Caliper mobility shift kinase assay with recombinant FGFR1, also at varied ATP concentrations

T1 sequence (P11362 22-822): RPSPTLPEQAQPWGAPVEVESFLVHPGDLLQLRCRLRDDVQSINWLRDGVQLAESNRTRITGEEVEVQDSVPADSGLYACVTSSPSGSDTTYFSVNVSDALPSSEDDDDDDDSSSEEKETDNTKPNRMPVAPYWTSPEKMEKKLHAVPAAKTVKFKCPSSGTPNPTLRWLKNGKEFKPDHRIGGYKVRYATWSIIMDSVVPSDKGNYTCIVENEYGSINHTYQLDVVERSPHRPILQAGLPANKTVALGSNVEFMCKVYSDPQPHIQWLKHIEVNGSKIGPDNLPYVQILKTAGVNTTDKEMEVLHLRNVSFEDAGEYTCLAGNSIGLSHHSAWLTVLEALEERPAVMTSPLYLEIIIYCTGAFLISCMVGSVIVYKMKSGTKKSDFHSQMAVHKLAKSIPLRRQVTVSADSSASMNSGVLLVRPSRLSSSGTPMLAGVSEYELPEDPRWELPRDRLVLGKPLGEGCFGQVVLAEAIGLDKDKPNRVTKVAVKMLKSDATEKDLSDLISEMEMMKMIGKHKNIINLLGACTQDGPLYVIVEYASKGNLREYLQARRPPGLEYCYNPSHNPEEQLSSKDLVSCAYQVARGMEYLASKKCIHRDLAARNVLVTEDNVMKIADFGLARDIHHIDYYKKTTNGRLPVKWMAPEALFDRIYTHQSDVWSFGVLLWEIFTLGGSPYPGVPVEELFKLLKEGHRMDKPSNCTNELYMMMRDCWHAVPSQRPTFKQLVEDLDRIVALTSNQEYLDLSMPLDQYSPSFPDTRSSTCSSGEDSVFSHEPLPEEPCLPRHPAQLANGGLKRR
FGFR3, sequence (P22607 23-806): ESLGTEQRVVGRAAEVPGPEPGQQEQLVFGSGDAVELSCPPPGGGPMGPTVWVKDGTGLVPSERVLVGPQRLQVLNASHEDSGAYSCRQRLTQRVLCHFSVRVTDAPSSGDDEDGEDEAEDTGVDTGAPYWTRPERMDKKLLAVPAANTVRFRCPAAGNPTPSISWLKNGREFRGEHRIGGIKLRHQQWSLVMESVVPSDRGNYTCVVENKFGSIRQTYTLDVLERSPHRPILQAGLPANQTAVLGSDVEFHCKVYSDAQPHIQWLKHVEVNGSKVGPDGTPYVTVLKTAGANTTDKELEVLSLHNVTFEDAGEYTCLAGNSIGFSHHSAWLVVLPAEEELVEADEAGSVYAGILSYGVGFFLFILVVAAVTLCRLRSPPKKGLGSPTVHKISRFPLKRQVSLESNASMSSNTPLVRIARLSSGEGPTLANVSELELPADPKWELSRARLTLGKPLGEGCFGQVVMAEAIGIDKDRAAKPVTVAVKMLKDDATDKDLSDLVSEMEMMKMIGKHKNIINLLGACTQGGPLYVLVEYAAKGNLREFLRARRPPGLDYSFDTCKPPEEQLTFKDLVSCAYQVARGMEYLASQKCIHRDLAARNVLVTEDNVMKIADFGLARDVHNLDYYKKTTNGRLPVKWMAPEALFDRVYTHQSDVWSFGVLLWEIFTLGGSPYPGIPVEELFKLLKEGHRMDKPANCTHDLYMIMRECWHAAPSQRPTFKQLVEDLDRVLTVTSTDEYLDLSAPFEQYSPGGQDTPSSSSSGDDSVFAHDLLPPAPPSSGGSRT

Compound | IC50 (FGFR1 [1]) | IC50 (FGFR3) | IC50 (FGFR1 [2])
O=C1/C(=C/c2ccc(O)c(O)c2)COC/C1=C\c1ccc(O)c(O)c1 [Af23, 3,5-bis(3,4-dihydroxybenzylidene)-tetrahydropyran-4-one] | 1400 nM | – | –
O=C1/C(=C/c2ccc(O)c(O)c2)CSC/C1=C\c1ccc(O)c(O)c1 [Ad23, 3,5-bis(3,4-dihydroxybenzylidene)-tetrahydrothiopyran-4-one] | 600 nM | – | –
CC(Cc1ccc(O)c(O)c1)C(C)Cc1ccc(O)c(O)c1 (stereo not shown) [NDGA, nordihydroguaiaretic acid] | – | 72.4 µM | 24.5 µM
